Reference: the NIST ThermoML archive (doi:10.1021/je200616t)
± gives the expanded uncertainty stated by the source.

Assay: xn = mol fraction of the nth substance listed
Settings: 101 kPa, Liquid, MP522 conductivity instrument

CCCCCC[n+]1ccccc1.O=S(=O)([N-]S(=O)(=O)C(F)(F)F)C(F)(F)F [1-hexylpyridinium bis(trifluromethylsulfonyl)imide] + CC#N
electrical conductivity (283.15 K, x1 = 0.0432): 2.75 ± 0.06 S/m
electrical conductivity (283.15 K, x1 = 0.0703): 2.91 ± 0.06 S/m
electrical conductivity (283.15 K, x1 = 0.0883): 2.83 ± 0.06 S/m
electrical conductivity (283.15 K, x1 = 0.1355): 2.37 ± 0.05 S/m
electrical conductivity (283.15 K, x1 = 0.2056): 1.64 ± 0.033 S/m
electrical conductivity (283.15 K, x1 = 0.2534): 1.27 ± 0.026 S/m
electrical conductivity (283.15 K, x1 = 0.332): 0.886 ± 0.018 S/m
electrical conductivity (283.15 K, x1 = 0.4498): 0.503 ± 0.01 S/m
electrical conductivity (283.15 K, x1 = 0.5297): 0.351 ± 0.007 S/m
electrical conductivity (283.15 K, x1 = 0.6276): 0.239 ± 0.005 S/m
electrical conductivity (283.15 K, x1 = 0.8155): 0.128 ± 0.003 S/m
electrical conductivity (283.15 K, x1 = 0.9205): 0.0936 ± 0.002 S/m
electrical conductivity (283.15 K, x1 = 1): 0.0737 ± 0.0016 S/m
electrical conductivity (293.15 K, x1 = 0.0432): 3.05 ± 0.06 S/m
electrical conductivity (293.15 K, x1 = 0.0703): 3.28 ± 0.07 S/m
electrical conductivity (293.15 K, x1 = 0.0883): 3.22 ± 0.06 S/m
electrical conductivity (293.15 K, x1 = 0.1355): 2.77 ± 0.06 S/m
electrical conductivity (293.15 K, x1 = 0.2056): 2 ± 0.04 S/m
electrical conductivity (293.15 K, x1 = 0.2534): 1.59 ± 0.032 S/m
electrical conductivity (293.15 K, x1 = 0.332): 1.16 ± 0.023 S/m
electrical conductivity (293.15 K, x1 = 0.4498): 0.702 ± 0.014 S/m
electrical conductivity (293.15 K, x1 = 0.5297): 0.51 ± 0.01 S/m
electrical conductivity (293.15 K, x1 = 0.6276): 0.362 ± 0.007 S/m
electrical conductivity (293.15 K, x1 = 0.8155): 0.207 ± 0.004 S/m
electrical conductivity (293.15 K, x1 = 0.9205): 0.157 ± 0.003 S/m
electrical conductivity (293.15 K, x1 = 1): 0.128 ± 0.003 S/m
electrical conductivity (298.15 K, x1 = 0.0432): 3.2 ± 0.06 S/m
electrical conductivity (298.15 K, x1 = 0.0703): 3.46 ± 0.07 S/m
electrical conductivity (298.15 K, x1 = 0.0883): 3.42 ± 0.07 S/m
electrical conductivity (298.15 K, x1 = 0.1355): 2.98 ± 0.06 S/m
electrical conductivity (298.15 K, x1 = 0.2056): 2.19 ± 0.04 S/m
electrical conductivity (298.15 K, x1 = 0.2534): 1.77 ± 0.036 S/m
electrical conductivity (298.15 K, x1 = 0.332): 1.3 ± 0.026 S/m
electrical conductivity (298.15 K, x1 = 0.4498): 0.811 ± 0.016 S/m
electrical conductivity (298.15 K, x1 = 0.5297): 0.599 ± 0.012 S/m
electrical conductivity (298.15 K, x1 = 0.6276): 0.437 ± 0.009 S/m
electrical conductivity (298.15 K, x1 = 0.8155): 0.256 ± 0.005 S/m
electrical conductivity (298.15 K, x1 = 0.9205): 0.197 ± 0.004 S/m
electrical conductivity (298.15 K, x1 = 1): 0.163 ± 0.003 S/m
electrical conductivity (303.15 K, x1 = 0.0432): 3.35 ± 0.07 S/m
electrical conductivity (303.15 K, x1 = 0.0703): 3.65 ± 0.07 S/m
electrical conductivity (303.15 K, x1 = 0.0883): 3.61 ± 0.07 S/m
electrical conductivity (303.15 K, x1 = 0.1355): 3.19 ± 0.06 S/m
electrical conductivity (303.15 K, x1 = 0.2056): 2.39 ± 0.05 S/m
electrical conductivity (303.15 K, x1 = 0.2534): 2 ± 0.04 S/m
electrical conductivity (303.15 K, x1 = 0.332): 1.46 ± 0.029 S/m
electrical conductivity (303.15 K, x1 = 0.4498): 0.935 ± 0.019 S/m
electrical conductivity (303.15 K, x1 = 0.5297): 0.702 ± 0.014 S/m
electrical conductivity (303.15 K, x1 = 0.6276): 0.518 ± 0.011 S/m
electrical conductivity (303.15 K, x1 = 0.8155): 0.316 ± 0.006 S/m
electrical conductivity (303.15 K, x1 = 0.9205): 0.245 ± 0.005 S/m
electrical conductivity (303.15 K, x1 = 1): 0.205 ± 0.004 S/m
electrical conductivity (313.15 K, x1 = 0.0432): 3.65 ± 0.07 S/m
electrical conductivity (313.15 K, x1 = 0.0703): 4.01 ± 0.08 S/m
electrical conductivity (313.15 K, x1 = 0.0883): 4 ± 0.08 S/m
electrical conductivity (313.15 K, x1 = 0.1355): 3.61 ± 0.07 S/m
electrical conductivity (313.15 K, x1 = 0.2056): 2.81 ± 0.06 S/m
electrical conductivity (313.15 K, x1 = 0.2534): 2.38 ± 0.05 S/m
electrical conductivity (313.15 K, x1 = 0.332): 1.79 ± 0.036 S/m
electrical conductivity (313.15 K, x1 = 0.4498): 1.2 ± 0.024 S/m
electrical conductivity (313.15 K, x1 = 0.5297): 0.924 ± 0.019 S/m
electrical conductivity (313.15 K, x1 = 0.6276): 0.704 ± 0.014 S/m
electrical conductivity (313.15 K, x1 = 0.8155): 0.452 ± 0.009 S/m
electrical conductivity (313.15 K, x1 = 0.9205): 0.358 ± 0.007 S/m
electrical conductivity (313.15 K, x1 = 1): 0.306 ± 0.006 S/m

CCCC[n+]1ccccc1.O=S(=O)([N-]S(=O)(=O)C(F)(F)F)C(F)(F)F [1-butylpyridinium bis[(trifluoromethyl)sulfonyl]imide] + CC#N
electrical conductivity (283.15 K, x1 = 0.0379): 3.17 ± 0.06 S/m
electrical conductivity (283.15 K, x1 = 0.0652): 3.38 ± 0.07 S/m
electrical conductivity (283.15 K, x1 = 0.1114): 3.28 ± 0.07 S/m
electrical conductivity (283.15 K, x1 = 0.1566): 2.84 ± 0.06 S/m
electrical conductivity (283.15 K, x1 = 0.217): 2.22 ± 0.04 S/m
electrical conductivity (283.15 K, x1 = 0.3137): 1.46 ± 0.029 S/m
electrical conductivity (283.15 K, x1 = 0.4004): 1.01 ± 0.02 S/m
electrical conductivity (283.15 K, x1 = 0.513): 0.653 ± 0.013 S/m
electrical conductivity (283.15 K, x1 = 0.6732): 0.371 ± 0.008 S/m
electrical conductivity (283.15 K, x1 = 0.7658): 0.282 ± 0.006 S/m
electrical conductivity (283.15 K, x1 = 0.8473): 0.223 ± 0.005 S/m
electrical conductivity (283.15 K, x1 = 0.8897): 0.2 ± 0.004 S/m
electrical conductivity (283.15 K, x1 = 0.9649): 0.167 ± 0.004 S/m
electrical conductivity (283.15 K, x1 = 1): 0.151 ± 0.003 S/m
electrical conductivity (293.15 K, x1 = 0.0379): 3.52 ± 0.07 S/m
electrical conductivity (293.15 K, x1 = 0.0652): 3.77 ± 0.08 S/m
electrical conductivity (293.15 K, x1 = 0.1114): 3.72 ± 0.07 S/m
electrical conductivity (293.15 K, x1 = 0.1566): 3.3 ± 0.07 S/m
electrical conductivity (293.15 K, x1 = 0.217): 2.67 ± 0.05 S/m
electrical conductivity (293.15 K, x1 = 0.3137): 1.83 ± 0.037 S/m
electrical conductivity (293.15 K, x1 = 0.4004): 1.31 ± 0.026 S/m
electrical conductivity (293.15 K, x1 = 0.513): 0.897 ± 0.018 S/m
electrical conductivity (293.15 K, x1 = 0.6732): 0.546 ± 0.011 S/m
electrical conductivity (293.15 K, x1 = 0.7658): 0.427 ± 0.009 S/m
electrical conductivity (293.15 K, x1 = 0.8473): 0.348 ± 0.007 S/m
electrical conductivity (293.15 K, x1 = 0.8897): 0.316 ± 0.006 S/m
electrical conductivity (293.15 K, x1 = 0.9649): 0.261 ± 0.005 S/m
electrical conductivity (293.15 K, x1 = 1): 0.246 ± 0.005 S/m
electrical conductivity (298.15 K, x1 = 0.0379): 3.68 ± 0.07 S/m
electrical conductivity (298.15 K, x1 = 0.0652): 3.96 ± 0.08 S/m
electrical conductivity (298.15 K, x1 = 0.1114): 3.94 ± 0.08 S/m
electrical conductivity (298.15 K, x1 = 0.1566): 3.54 ± 0.07 S/m
electrical conductivity (298.15 K, x1 = 0.217): 2.89 ± 0.06 S/m
electrical conductivity (298.15 K, x1 = 0.3137): 2.02 ± 0.04 S/m
electrical conductivity (298.15 K, x1 = 0.4004): 1.48 ± 0.03 S/m
electrical conductivity (298.15 K, x1 = 0.513): 1.03 ± 0.021 S/m
electrical conductivity (298.15 K, x1 = 0.6732): 0.647 ± 0.013 S/m
electrical conductivity (298.15 K, x1 = 0.7658): 0.512 ± 0.01 S/m
electrical conductivity (298.15 K, x1 = 0.8473): 0.424 ± 0.009 S/m
electrical conductivity (298.15 K, x1 = 0.8897): 0.388 ± 0.008 S/m
electrical conductivity (298.15 K, x1 = 0.9649): 0.33 ± 0.007 S/m
electrical conductivity (298.15 K, x1 = 1): 0.307 ± 0.006 S/m
electrical conductivity (303.15 K, x1 = 0.0379): 3.85 ± 0.08 S/m
electrical conductivity (303.15 K, x1 = 0.0652): 4.16 ± 0.08 S/m
electrical conductivity (303.15 K, x1 = 0.1114): 4.18 ± 0.08 S/m
electrical conductivity (303.15 K, x1 = 0.1566): 3.78 ± 0.08 S/m
electrical conductivity (303.15 K, x1 = 0.217): 3.13 ± 0.06 S/m
electrical conductivity (303.15 K, x1 = 0.3137): 2.23 ± 0.05 S/m
electrical conductivity (303.15 K, x1 = 0.4004): 1.66 ± 0.033 S/m
electrical conductivity (303.15 K, x1 = 0.513): 1.18 ± 0.024 S/m
electrical conductivity (303.15 K, x1 = 0.6732): 0.762 ± 0.015 S/m
electrical conductivity (303.15 K, x1 = 0.7658): 0.611 ± 0.012 S/m
electrical conductivity (303.15 K, x1 = 0.8473): 0.511 ± 0.01 S/m
electrical conductivity (303.15 K, x1 = 0.8897): 0.47 ± 0.01 S/m
electrical conductivity (303.15 K, x1 = 0.9649): 0.405 ± 0.008 S/m
electrical conductivity (303.15 K, x1 = 1): 0.377 ± 0.008 S/m
electrical conductivity (313.15 K, x1 = 0.0379): 4.19 ± 0.08 S/m
electrical conductivity (313.15 K, x1 = 0.0652): 4.55 ± 0.09 S/m
electrical conductivity (313.15 K, x1 = 0.1114): 4.64 ± 0.09 S/m
electrical conductivity (313.15 K, x1 = 0.1566): 4.26 ± 0.09 S/m
electrical conductivity (313.15 K, x1 = 0.217): 3.6 ± 0.07 S/m
electrical conductivity (313.15 K, x1 = 0.3137): 2.66 ± 0.05 S/m
electrical conductivity (313.15 K, x1 = 0.4004): 2.04 ± 0.04 S/m
electrical conductivity (313.15 K, x1 = 0.513): 1.5 ± 0.03 S/m
electrical conductivity (313.15 K, x1 = 0.6732): 1.01 ± 0.02 S/m
electrical conductivity (313.15 K, x1 = 0.7658): 0.83 ± 0.017 S/m
electrical conductivity (313.15 K, x1 = 0.8473): 0.708 ± 0.014 S/m
electrical conductivity (313.15 K, x1 = 0.8897): 0.657 ± 0.013 S/m
electrical conductivity (313.15 K, x1 = 0.9649): 0.576 ± 0.012 S/m
electrical conductivity (313.15 K, x1 = 1): 0.542 ± 0.011 S/m
